We go through eight compounds from publication PMC8294803, “A Roadmap to the Structure-Related Metabolism Pathways of Per- and Polyfluoroalkyl Substances in the Early Life Stages of Zebrafish (Danio rerio)” (Environmental Health Perspectives, 2021).

“And” between values parts separate entries of the source, which are not always exact repeats. Equal values may be shown once.

In general, Kd refers to the equilibrium constant for the complex coming apart.

The subject of the first data set is zebrafish larvae. Put plainly: Bioconcentration factors (BCF) of PFAS in zebrafish larvae. Particulars: zebrafish larvae, 0.5 µM exposure, 120 hpf, three replicates. On the procedure:
Zebrafish embryos were collected immediately after spawning, within 1 h, and subsequently transferred to 24-well plates with 1mL of facility water ( 0.036g sea salt, 0.15g sodium bicarbonate in 2L of reverse osmosis water). […] Three well replicates on the same plate were conducted for each concentration of individual chemical. […] Seven batches of experiments were performed to test all 74 PFAS. DMSO controls were incorporated in each batch of exposure experiments. Three replicates were performed for each treatment group, and 20 embryos were used for each replicate. […] For daily replenishment, 2.5mL of old exposure medium were replaced with freshly prepared medium every 24 h from 24 to 96 h post fertilization (hpf). Hatched or dead embryo numbers were recorded every 24 hpf, after which dead embryos were discarded from the growth media. Dead embryos or unhatched embryos were not used for PFAS measurement because the metabolism of PFAS might have been impacted. Zebrafish larvae collection occurred at 120 hpf. First, the larvae were anesthetized by cooling the plate in ice water (0–4°C) for ∼20 min . Then 8–15 larvae in each well were transferred into 1.5-mL tubes. Exposure media was carefully removed, and then the larvae were weighed (wet weight) after blotting excess water with a paper towel. […] Samples were stored at −80 °C until further chemical analysis was performed. Survival rate and hatching rate were calculated by summarizing all the documented data from the whole treatment duration. […] The exposure experiment of PFOSA was repeated using the same procedure as described above.
Each sample was spiked with 2μL of 0.2μg/mL mass-labeled PFAS mixture. Following this, 500μL of dichloromethane/methanol (2:1, vol/vol) was added to each sample for PFAS extraction. Larvae were then homogenized via ultrasonic probe, followed by 30 min of shaking and 30 min of sonication. Each sample was centrifuged at 14,000×g for 5 min, after which the supernatant was transferred to new tubes. Extraction was repeated once and the two supernatants were combined, evaporated under nitrogen flow, and reconstituted in 200μL of methanol for MS analysis.
Three microliters of each zebrafish extract was applied to a C18 column ( 1.5μm; 2.1mm×50mm; Thermo Scientific) and analyzed using a Vanquish ultra-HPLC system (Thermo Fisher Scientific) coupled to a Q Exactive high-resolution mass spectrometer (Thermo Fisher Scientific). The sampler and column compartments were maintained at 4°C and 40°C, respectively. The aqueous mobile phase solution (A) consisted of water, whereas the organic mobile phase solution (B) consisted of acetonitrile. […] MS data was acquired in full scan mode (100–1000 m/z, 70,000 mass resolution, 3×10^6 maximum ions collected per 100 ms), and tandem MS (MS/MS) data was recorded by all-ion fragmentation (AIF) mode. Negative and positive ion modes were carried out simultaneously at a 10-min method duration. […] An overview of the analyses conducted on the various PFAS is available in Table S2.
GraphPad Prism (version 7.0.4; GraphPad Software) and R studio (version 1.1.456; R Studio Inc.) software was used, and an ANOVA with Dunnett tests was employed to evaluate the statistical significance of the percentage hatched and mortality rate. Exponential regressions were used to determine the relationships between bioconcentration factor (BCF) and binding affinities ( Kd ) to L-FABP.
Turning to `O=S(=O)([O-])C(F)(F)C(F)(F)C(F)(F)C(F)(F)C(F)(F)C(F)(F)C(F)(F)C(F)(F)F.[K+]` [compound 6, Potassium perfluorooctanesulfonate], the “BCF 0.5µM” value was 288 ± 99 L/kg and 287.815 L/kg.

For the compound `O=C(O)C(F)(F)OC(F)(F)C(F)(F)OC(F)(F)C(=O)O` [compound 7, Perfluoro-3,6-dioxaoctane-1,8-dioic acid], the “BCF 0.5µM” value is “NDb”.

On to `O=S(=O)(O)CCC(F)(F)C(F)(F)C(F)(F)C(F)(F)F` [compound 15, 4:2 Fluorotelomer sulfonic acid], for which the “BCF 0.5µM” value was 5.68 L/kg.

In the case of `O=C(O)C(F)(F)C(F)(F)C(F)(F)C(F)(F)C(F)(F)C(F)(F)C(F)(F)C(F)(F)F` [compound 17, Perfluorononanoic acid], the “BCF 0.5µM” value was 152.811 L/kg.

Take `O=C(O)C(F)(F)C(F)(F)C(F)(F)C(F)(F)C(F)(F)F` [compound 20, Perfluorohexanoic acid]: the “BCF 0.5µM” value is listed as 6.647 L/kg.

With `N.O=C(O)C(F)(F)C(F)(F)C(F)(F)C(F)(F)C(F)(F)C(F)(F)C(F)(F)F` [compound 21, Ammonium perfluorooctanoate], the “BCF 0.5µM” value stood at 42.5265 L/kg.

`O=C(O)C=C(C(F)(F)F)C(F)(F)F` [compound 23, 3,3-Bis(trifluoromethyl)-2-propenoic acid]: the “BCF 0.5µM” value is listed as 1.831 L/kg.

For the compound `CCNS(=O)(=O)C(F)(F)C(F)(F)C(F)(F)C(F)(F)C(F)(F)C(F)(F)C(F)(F)C(F)(F)F` [compound 24, N-Ethylperfluorooctanesulfonamide], the “BCF 0.5µM” value was 28.4424 L/kg.

Staying with this data set, now noted: zebrafish larvae, 5 µM exposure, 120 hpf, three replicates.
As for `O=S(=O)([O-])C(F)(F)C(F)(F)C(F)(F)C(F)(F)C(F)(F)C(F)(F)C(F)(F)C(F)(F)F.[K+]` [compound 6, Potassium perfluorooctanesulfonate], the “BCF 5µM” value was found to be 82 ± 9.2 L/kg.

For `O=S(=O)(O)CCC(F)(F)C(F)(F)C(F)(F)C(F)(F)F` [compound 15, 4:2 Fluorotelomer sulfonic acid], the “BCF 5µM” value came out at 2.5 ± 0.13 L/kg.

As for `O=C(O)C(F)(F)C(F)(F)C(F)(F)C(F)(F)C(F)(F)C(F)(F)C(F)(F)C(F)(F)F` [compound 17, Perfluorononanoic acid], the “BCF 5µM” value is listed as 73 ± 6.9 L/kg.

As to `O=C(O)C(F)(F)C(F)(F)C(F)(F)C(F)(F)C(F)(F)F` [compound 20, Perfluorohexanoic acid], the “BCF 5µM” value is listed as 3.5 ± 0.64 L/kg.

For `N.O=C(O)C(F)(F)C(F)(F)C(F)(F)C(F)(F)C(F)(F)C(F)(F)C(F)(F)F` [compound 21, Ammonium perfluorooctanoate], the “BCF 5µM” value is 21 ± 0.42 L/kg.

As to `O=C(O)C=C(C(F)(F)F)C(F)(F)F` [compound 23, 3,3-Bis(trifluoromethyl)-2-propenoic acid], the “BCF 5µM” value was 0.69 ± 0.29 L/kg.

For `CCNS(=O)(=O)C(F)(F)C(F)(F)C(F)(F)C(F)(F)C(F)(F)C(F)(F)C(F)(F)C(F)(F)F` [compound 24, N-Ethylperfluorooctanesulfonamide], the “BCF 5µM” value was 24 ± 2.9 L/kg.

A further data set deals with zebrafish embryos.
Assay: not given
Particulars: 5μM through 120 hpf, malformation rate.
On to `O=S(=O)([O-])C(F)(F)C(F)(F)C(F)(F)C(F)(F)C(F)(F)C(F)(F)C(F)(F)C(F)(F)F.[K+]` [compound 6, Potassium perfluorooctanesulfonate], for which the “pericardial oedemata, Mean” value came to 1.11%; the “spinal curvature, Mean” value is reported as 2.22%; the “tail dysplasia, Mean” value stood at 1.11%.

Turning to `O=C(O)C(F)(F)OC(F)(F)C(F)(F)OC(F)(F)C(=O)O` [compound 7, Perfluoro-3,6-dioxaoctane-1,8-dioic acid], the “pericardial oedemata, Mean” value stood at 2.22%; the “spinal curvature, Mean” value is 1.11%; the “tail dysplasia, Mean” value was found to be 0.00%.

For `O=C(O)C(F)(F)C(F)(F)C(F)(F)C(F)(F)C(F)(F)C(F)(F)C(F)(F)C(F)(F)F` [compound 17, Perfluorononanoic acid], the “pericardial oedemata, Mean” value was 0.00%; the “spinal curvature, Mean” value is on record as 0.00%; the “tail dysplasia, Mean” value was 0.00%.

Regarding `O=C(O)C(F)(F)C(F)(F)C(F)(F)C(F)(F)C(F)(F)F` [compound 20, Perfluorohexanoic acid], the “pericardial oedemata, Mean” value is listed as 0.00%; the “spinal curvature, Mean” value is listed as 0.00%; the “tail dysplasia, Mean” value was 0.00%.

Regarding `N.O=C(O)C(F)(F)C(F)(F)C(F)(F)C(F)(F)C(F)(F)C(F)(F)C(F)(F)F` [compound 21, Ammonium perfluorooctanoate], the “pericardial oedemata, Mean” value was found to be 2.22%; the “spinal curvature, Mean” value was 1.11%; the “tail dysplasia, Mean” value is given as 2.22%.

On to `O=C(O)C=C(C(F)(F)F)C(F)(F)F` [compound 23, 3,3-Bis(trifluoromethyl)-2-propenoic acid], for which the “pericardial oedemata, Mean” value stood at 1.11%; the “spinal curvature, Mean” value came out at 3.33%; the “tail dysplasia, Mean” value stood at 3.33%.

In the case of `CCNS(=O)(=O)C(F)(F)C(F)(F)C(F)(F)C(F)(F)C(F)(F)C(F)(F)C(F)(F)C(F)(F)F` [compound 24, N-Ethylperfluorooctanesulfonamide], the “pericardial oedemata, Mean” value came out at 1.11%; the “spinal curvature, Mean” value is 1.11%; the “tail dysplasia, Mean” value is 1.11%.

Still in this data set, the particulars now being: 5μM, 5 d.
With `CCNS(=O)(=O)C(F)(F)C(F)(F)C(F)(F)C(F)(F)C(F)(F)C(F)(F)C(F)(F)C(F)(F)F` [compound 24, N-Ethylperfluorooctanesulfonamide], the “Lethal effects on zebrafish larvae” value is recorded as “did not cause significant lethal effects”.

Staying with this data set, now noted: 5 µM, exposure through 120 hpf.
With `O=S(=O)([O-])C(F)(F)C(F)(F)C(F)(F)C(F)(F)C(F)(F)C(F)(F)C(F)(F)C(F)(F)F.[K+]` [compound 6, Potassium perfluorooctanesulfonate], the “Mortality (%)” value was 2.2%.

With `O=C(O)C(F)(F)OC(F)(F)C(F)(F)OC(F)(F)C(=O)O` [compound 7, Perfluoro-3,6-dioxaoctane-1,8-dioic acid], the “Mortality (%)” value turned out to be 1.1%.

For `O=C(O)C(F)(F)C(F)(F)C(F)(F)C(F)(F)C(F)(F)C(F)(F)C(F)(F)C(F)(F)F` [compound 17, Perfluorononanoic acid], the “Mortality (%)” value came out at 1.1%.

Turning to `O=C(O)C(F)(F)C(F)(F)C(F)(F)C(F)(F)C(F)(F)F` [compound 20, Perfluorohexanoic acid], the “Mortality (%)” value was 0%.

For `N.O=C(O)C(F)(F)C(F)(F)C(F)(F)C(F)(F)C(F)(F)C(F)(F)C(F)(F)F` [compound 21, Ammonium perfluorooctanoate], the “Mortality (%)” value stood at 0%.

Consider `O=C(O)C=C(C(F)(F)F)C(F)(F)F` [compound 23, 3,3-Bis(trifluoromethyl)-2-propenoic acid], for which the “Mortality (%)” value amounted to 2.2%.

For the compound `CCNS(=O)(=O)C(F)(F)C(F)(F)C(F)(F)C(F)(F)C(F)(F)C(F)(F)C(F)(F)C(F)(F)F` [compound 24, N-Ethylperfluorooctanesulfonamide], the “Mortality (%)” value is listed as 3.3%.

Staying with this data set, now noted: in vivo.
`O=S(=O)(O)CCC(F)(F)C(F)(F)C(F)(F)C(F)(F)F` [compound 15, 4:2 Fluorotelomer sulfonic acid]: the “Mortality (%)” value came out at 0; the “pericardial oedemata, Mean” value is listed as 1.11%; the “spinal curvature, Mean” value stood at 0.00%; the “tail dysplasia, Mean” value is 0.00%.

In a further data set the target is liver fatty acid binding protein (L-FABP).
Assay: not given
Further details: method as in Yang et al. 2020. Particulars: ref Yang et al. 2020; read-out: Kd (μM), L-FABP binding affinity; cited from earlier work.
As to `O=S(=O)([O-])C(F)(F)C(F)(F)C(F)(F)C(F)(F)C(F)(F)C(F)(F)C(F)(F)C(F)(F)F.[K+]` [compound 6, Potassium perfluorooctanesulfonate], the dissociation constant Kd is 8.1 µM.

Regarding `O=C(O)C(F)(F)C(F)(F)C(F)(F)C(F)(F)C(F)(F)C(F)(F)C(F)(F)C(F)(F)F` [compound 17, Perfluorononanoic acid], the Kd was 4.3 µM.

For `O=C(O)C(F)(F)C(F)(F)C(F)(F)C(F)(F)C(F)(F)F` [compound 20, Perfluorohexanoic acid], the Kd was 141 µM.

As for `N.O=C(O)C(F)(F)C(F)(F)C(F)(F)C(F)(F)C(F)(F)C(F)(F)C(F)(F)F` [compound 21, Ammonium perfluorooctanoate], the Kd is 18.7 µM.
